According to patent US20240270762A1, “PENICILLIN-BINDING PROTEIN INHIBITORS” (priority 2021, published 2024):
Values after ≈ are worked out from the molar mass of the structure shown.

Tests used:
[1] = biological target: T1, PBP1a from Acinetobacter baumannii (ATCC 19606) (Acinetobacter baumannii, UniProt A0ABX6CK30); experiment: Bocillin-FL fluorescence polarization competition binding, A. baumannii PBP1a; conditions: fluorescence polarization competition binding assay using Bocillin-FL; read-out: A. baumannii PBP1a Potency
T1 sequence (A0ABX6CK30 1-851): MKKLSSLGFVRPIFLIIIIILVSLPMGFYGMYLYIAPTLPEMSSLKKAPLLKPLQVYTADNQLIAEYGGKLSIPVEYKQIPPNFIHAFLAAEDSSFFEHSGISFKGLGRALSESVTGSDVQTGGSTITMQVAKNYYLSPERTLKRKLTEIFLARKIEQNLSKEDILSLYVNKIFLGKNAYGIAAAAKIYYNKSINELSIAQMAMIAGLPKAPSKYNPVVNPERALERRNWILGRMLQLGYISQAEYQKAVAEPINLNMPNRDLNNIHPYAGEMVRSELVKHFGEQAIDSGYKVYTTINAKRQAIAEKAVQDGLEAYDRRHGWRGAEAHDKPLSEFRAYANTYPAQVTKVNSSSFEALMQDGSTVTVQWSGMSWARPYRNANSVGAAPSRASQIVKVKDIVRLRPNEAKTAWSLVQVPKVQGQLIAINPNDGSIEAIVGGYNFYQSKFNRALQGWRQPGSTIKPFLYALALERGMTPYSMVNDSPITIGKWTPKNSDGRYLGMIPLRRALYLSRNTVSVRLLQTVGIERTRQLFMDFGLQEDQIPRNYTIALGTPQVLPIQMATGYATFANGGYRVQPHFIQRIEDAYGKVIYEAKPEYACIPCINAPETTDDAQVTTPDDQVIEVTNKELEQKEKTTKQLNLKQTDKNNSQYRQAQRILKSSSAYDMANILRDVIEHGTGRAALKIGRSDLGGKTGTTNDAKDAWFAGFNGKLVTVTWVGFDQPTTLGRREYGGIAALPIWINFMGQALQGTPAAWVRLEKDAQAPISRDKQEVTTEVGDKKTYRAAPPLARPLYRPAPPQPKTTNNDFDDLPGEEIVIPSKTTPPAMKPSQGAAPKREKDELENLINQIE
Source text: To determine the ability of boronic acid-based test PBP inhibitors to bind Penicillin Binding Proteins (PBPs), Bocillin-FL (fluorescently-labeled penicillin V; ThermoFisher Scientific) was used in a fluorescence polarization (FP) competition binding assay to assess inhibitor binding to PBP3 from Escherichia coli (K-12), PBP3 from Pseudomonas aeruginosa (PAO1), PBP1a and PBP3 from Acinetobacter baumannii (ATCC 19606), and PBP2 from Neisseria gonorrhoeae (FA19). PBPs were cloned and purified as described previously (E. coli PBP3, King, D. T, et al., ACS Infectious Diseases 2015, 1, 175-184; P. aeruginosa PBP3, Han et. al., PNAS 2010, 107 (51), 22002-22007; A. baumannii PBPs, Penwell et. al., Antimicrob. Agents Chemother. 2015, 59 (3), 1680-1689; N. gonorrhoeae PBP2, Singh et. al., J. Biol. Chem. 2019, 294 (38), 14020-14032). To establish assay conditions for competition binding, enzyme titration/saturation binding experiments were initially performed. Bocillin-FL was prepared at 0.2 μM in a buffer comprised of 50 mM Hepes (pH 8.0), 300 mM NaCl and 10% (v/v) glycerol for reactions with E. coli, P. aeruginosa and N. gonorrhoeae PBPs, and 25 mM Tris (pH 8.0), 200 mM NaCl, 10% (v/v) glycerol and 0.005% (v/v) Tween 20 for reactions with A. baumannii PBPs. Saturation binding was performed by mixing 40 μl of PBP solutions ranging in concentrations from 0-24 μM with 40 μl of the 0.2 μM Bocillin-FL solution, in individual wells of a black 384-well microplate. FP was measured immediately upon mixing (Excitation, 490 nm; Emission, 520 nm; g-factor, 0.96), using a Cytation3 (BioTek) microplate reader and measured continuously for up to 120 minutes. The FP response stabilized after 15 minutes for P. aeruginosa and A. baumannii PBP3, 30 minutes for E. coli PBP3 and A. baumannii PBP1a, and less than 1 minute for N. gonorrhoeae PBP2. […] The competition binding assay (80 μl final volume) was validated using beta-lactams and PBPs at final concentrations of: 1.5 μM for E. coli PBP3; 0.75 μM for P. aeruginosa PBP3; 1 μM for A. baumannii PBP1a; 0.2 μM for A. baumannii PBP3; and 0.25 μM for N. gonorrhoeae PBP2. Bocillin-FL was at 0.1 μM (0.05 μM with A. baumannii PBP1a) and beta-lactam concentrations ranged from 0-1,000 μM. E. coli PBP3 was incubated with increasing concentrations of ampicillin in a black 384-well microplate (Corning) for 30 minutes. P. aeruginosa PBP3 was incubated for 15 minutes with aztreonam, whereas A. baumannii PBP1a and PBP3 were incubated for 15 minutes with meropenem, and then Bocillin-FL was added followed immediately by the FP measurement for up to 60 minutes. […] The beta-lactam potency was reported as the concentration of beta-lactam required to reduce the amount of PBP bound-Bocillin-FL by 50% (EC50). […] The EC50 of aztreonam was determined to be <0.5 μM for P. aeruginosa PBP3. […] Binding assays for boronic acid PBP inhibitors were performed in an identical fashion for the respective PBPs.

P. aeruginosa CDC-0054 = experiment: microbe, parasite or virus in culture; format: cell-based; conditions: Pseudomonas aeruginosa, CDC0054, read-out: Minimum inhibitory concentration, P. aeruginosa CDC-0054
[2] = test system: B. humptydooensis ATCC BAA-2767; experiment: microbe, parasite or virus in culture; format: cell-based; conditions: Burkholderia humptydooensis, ATCCBAA2767, read-out: Minimum inhibitory concentration (MIC), B. humptydooensis ATCC BAA-2767
A. baumannii PBP1a = biological target: T2, A. baumannii PBP1a (Acinetobacter baumannii, UniProt A0ABX6CK30); experiment: Bocillin-FL competition binding via gel filtration, A. baumannii PBP1a; conditions: competition binding assay using Bocillin-FL via gel filtration; read-out: A. baumannii PBP1a Potency
T2 sequence (A0ABX6CK30 1-851): T1 sequence (A0ABX6CK30 1-851)
Method in brief: (§1)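 Competitive equilibrium binding; reporter Bocillin-FL. PBP + inhibitor (titration) pre-incubated → Bocillin-FL, 15 min → gel filtration → fluorescence. EC50 from Hill fit of fraction bound vs [inhibitor].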

A. baumannii PBP2 = A. baumannii PBP2 (Acinetobacter baumannii, UniProt D0C8Z9); experiment: Bocillin-FL competition binding via gel filtration, A. baumannii PBP2
Method in brief: as §1

Chain of A. baumannii PBP2 (D0C8Z9 whole entry): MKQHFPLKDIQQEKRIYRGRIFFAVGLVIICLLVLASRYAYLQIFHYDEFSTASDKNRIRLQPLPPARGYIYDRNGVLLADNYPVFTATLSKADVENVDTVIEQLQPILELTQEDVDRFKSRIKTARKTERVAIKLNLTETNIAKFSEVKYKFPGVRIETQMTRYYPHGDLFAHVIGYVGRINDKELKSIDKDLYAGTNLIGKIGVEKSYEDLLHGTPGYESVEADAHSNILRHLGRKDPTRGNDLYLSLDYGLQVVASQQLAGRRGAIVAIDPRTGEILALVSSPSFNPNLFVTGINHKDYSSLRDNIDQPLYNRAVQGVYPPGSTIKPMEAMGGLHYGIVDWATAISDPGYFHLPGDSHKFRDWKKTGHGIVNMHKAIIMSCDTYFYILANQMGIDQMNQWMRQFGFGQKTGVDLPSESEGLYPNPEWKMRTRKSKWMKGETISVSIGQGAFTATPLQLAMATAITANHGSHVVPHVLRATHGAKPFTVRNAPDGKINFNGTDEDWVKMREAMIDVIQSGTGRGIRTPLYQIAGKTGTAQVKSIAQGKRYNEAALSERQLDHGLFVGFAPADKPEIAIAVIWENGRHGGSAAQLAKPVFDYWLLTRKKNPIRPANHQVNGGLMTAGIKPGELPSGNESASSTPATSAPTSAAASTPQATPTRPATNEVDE

Compound | IC50 [1] | MIC (P. aeruginosa CDC-0054) | MIC [2] | EC50 (A. baumannii PBP1a) | EC50 (A. baumannii PBP2)
CS(=O)(=O)N1CCN(C(=O)N[C@@H](C(=O)N[C@H]2Cc3cccc(C(=O)O)c3OB2O)c2ccc(P(=O)(O)O)c(F)c2F)C1=O (single isomer, unassigned) [Example 13] | > 250 µM |  |  |  | 
CS(=O)(=O)N1CCN(C(=O)N[C@@H](C(=O)N[C@H]2Cc3ccc(F)c(C(=O)O)c3OB2O)c2ccc(P(=O)(O)O)c(F)c2)C1=O (single isomer, unassigned) [Example 19] |  | > 128 µg/mL | 32 to 64 µg/mL (≈ 49.5 to 99 µM) |  | 
O=C(O)c1c(F)ccc2c1OB(O)[C@@H](NC(=O)C(NC(=O)N1CCN(Cc3ccc(O)c(O)c3Cl)C(=O)C1=O)c1ccc(P(=O)(O)O)cc1)C2 (stereo partly drawn) [Example 8, (3R)-3-(2-(4-(2-chloro-3,4-dihydroxybenzyl)-2,3-dioxopiperazine-1-carboxamido)-2-(4-phosphonophenyl)acetamido)-7-fluoro-2-hydroxy-3,4-dihydro-2H-benzo[e][1,2]oxaborinine-8-carboxylic acid] |  | < 1 µg/mL | < 1 µg/mL | 10 to 50 µM | 10 to 50 µM
CS(=O)(=O)N1CCN(C(=O)NC(C(=O)N[C@H]2Cc3cccc(C(=O)O)c3OB2O)c2ccc(P(=O)(O)O)c(Cl)c2)C1=O (stereo partly drawn) [Example 11, (3R)-3-(2-(3-chloro-4-phosphonophenyl)-2-(3-(methylsulfonyl)-2-oxoimidazolidine-1-carboxamido)acetamido)-2-hydroxy-3,4-dihydro-2H-benzo[e][1,2]oxaborinine-8-carboxylic acid] | 50 to 250 µM |  |  |  | 
CS(=O)(=O)N1CCN(C(=O)N[C@@H](C(=O)N[C@H]2Cc3ccc(F)c(C(=O)O)c3OB2O)c2ccc(P(=O)(O)O)c(F)c2F)C1=O [Example 16, (R)-3-((R)-2-(2,3-difluoro-4-phosphonophenyl)-2-(3-(methylsulfonyl)-2-oxoimidazolidine-1-carboxamido)acetamido)-7-fluoro-2-hydroxy-3,4-dihydro-2H-benzo[e][1,2]oxaborinine-8-carboxylic acid] | > 250 µM |  |  |  | 
CS(=O)(=O)N1CCN(C(=O)NC(C(=O)N[C@H]2Cc3cccc(C(=O)O)c3OB2O)c2ccc(P(=O)(O)O)c(O)c2)C1=O (stereo partly drawn) [Example 17, (3R)-2-hydroxy-3-(2-(3-hydroxy-4-phosphonophenyl)-2-(3-(methylsulfonyl)-2-oxoimidazolidine-1-carboxamido)acetamido)-3,4-dihydro-2H-benzo[e][1,2]oxaborinine-8-carboxylic acid] |  |  |  |  | 50 to 250 µM
CCN1CCN(C(=O)NC(C(=O)N[C@H]2Cc3cccc(C(=O)O)c3OB2O)c2ccc(CP(=O)(O)O)cc2)C(=O)C1=O (stereo partly drawn) [Example 20, (3R)-3-(2-(4-ethyl-2,3-dioxopiperazine-1-carboxamido)-2-(4-(phosphonomethyl)phenyl)acetamido)-2-hydroxy-3,4-dihydro-2H-benzo[e][1,2]oxaborinine-8-carboxylic acid] | > 250 µM |  |  |  | 
CCN1CCN(C(=O)NC(C(=O)N[C@H]2Cc3cccc(C(=O)O)c3OB2O)c2cccc(CP(=O)(O)O)c2)C(=O)C1=O (stereo partly drawn) [Example 22, (3R)-3-(2-(4-ethyl-2,3-dioxopiperazine-1-carboxamido)-2-(3-(phosphonomethyl)phenyl)acetamido)-2-hydroxy-3,4-dihydro-2H-benzo[e][1,2]oxaborinine-8-carboxylic acid] | > 250 µM |  |  |  | 
O=C(O)c1c(F)ccc2c1OB(O)[C@@H](NC(=O)C(NC(=O)N1CCN(Cc3ccc(O)c(O)c3Cl)C(=O)C1=O)c1ccc(P(=O)(O)O)c(F)c1)C2 (stereo partly drawn) [Example 23, (3R)-3-(2-(4-(2-chloro-3,4-dihydroxybenzyl)-2,3-dioxopiperazine-1-carboxamido)-2-(3-fluoro-4-phosphonophenyl)acetamido)-7-fluoro-2-hydroxy-3,4-dihydro-2H-benzo[e][1,2]oxaborinine-8-carboxylic acid] | > 250 µM | < 1 µg/mL | < 1 µg/mL | 10 to 50 µM | < 10 µM
O=C(O)c1cccc2c1OB(O)[C@@H](NC(=O)C(NC(=O)N1CCN(Cc3ccc(O)c(O)c3Cl)C(=O)C1=O)c1ccc(P(=O)(O)O)cc1)C2 (stereo partly drawn) [Example 24, (3R)-3-(2-(4-(2-chloro-3,4-dihydroxybenzyl)-2,3-dioxopiperazine-1-carboxamido)-2-(4-phosphonophenyl)acetamido)-2-hydroxy-3,4-dihydro-2H-benzo[e][1,2]oxaborinine-8-carboxylic acid] | > 250 µM | < 1 µg/mL | < 1 µg/mL | 10 to 50 µM | 10 to 50 µM
O=C(N[C@@H](C(=O)N[C@H]1Cc2cccc(C(=O)O)c2OB1O)c1ccc(P(=O)(O)O)cc1)c1ccc(O)c(O)c1Cl [Example 49, (R)-3-((R)-2-(2-chloro-3,4-dihydroxybenzamido)-2-(4-phosphonophenyl)acetamido)-2-hydroxy-3,4-dihydro-2H-benzo[e][1,2]oxaborinine-8-carboxylic acid] |  | < 1 µg/mL | < 1 µg/mL | 10 to 50 µM | 10 to 50 µM
O=C(NCCN1CCN(C(=O)NC(C(=O)N[C@H]2Cc3ccc(F)c(C(=O)O)c3OB2O)c2ccc(P(=O)(O)O)cc2)C(=O)C1=O)c1ccc(O)c(O)c1Cl (stereo partly drawn) [Example 120, (3R)-3-(2-(4-(2-(2-chloro-3,4-dihydroxybenzamido)ethyl)-2,3-dioxopiperazine-1-carboxamido)-2-(4-phosphonophenyl)acetamido)-7-fluoro-2-hydroxy-3,4-dihydro-2H-benzo[e][1,2]oxaborinine-8-carboxylic acid] |  | < 1 µg/mL | < 1 µg/mL | 10 to 50 µM | 10 to 50 µM
